“Also recorded” adds a separate entry of the source.
Assays:
Parameters in all cases: species or system human
[1] = test system: circular strips of implanted engineered sphincter and gut segments; experiment: Real time force generation of circular strips of harvested sphincters and gut tissues
circular strips of hTEB = experiment: Organ bath studies of hTEB circular strips following omentum implantation
[2] = test system: sphincter and rectal cuff cross sections; experiment: Physiological studies on cross sections of harvested sphincter and rectal cuff

Structure (SMILES): COC(=O)[C@@H](N)CCCNC(=N)N[N+](=O)[O-].Cl [LNAME, Nω-Nitro-L-arginine methyl ester hydrochloride]
- EFS-induced relaxation after LNAME pre-treatment ([1]; gut segments, without LNAME −355±8 μN, in µN): −223±29
- effect on magnitude of EFS-induced relaxation ([1]; pre-incubation of implants with LNAME): significantly reduced
- EFS-induced relaxation after LNAME pre-treatment ([1]; sphincters, without LNAME −294±26 μN): −140±6 μN
- inhibition of EFS-induced relaxation (circular strips of hTEB; pretreatment with LNAME): 50%

Structure (SMILES): NC1=N[C@H](O)[C@H]2[C@H]3O[C@]4(O)O[C@@H]([C@@H](O)[C@@]2(N1)[C@@H]4O)[C@]3(O)CO [TTX, tetrodotoxin]
- effect on Ach-induced contraction [2]: significantly attenuated
- effect on EFS-induced relaxation [2]: completely inhibited
- effect on VIP-induced relaxation [2]: significantly diminished
- effect on EFS-induced relaxation [1]: completely abolished
- effect on EFS-induced relaxation (circular strips of hTEB): abolished

Structure (SMILES): CN1[C@@H]2CC[C@H]1C[C@@H](OC(=O)C(CO)c1ccccc1)C2 (stereo partly shown) [atropine]
- effect on ACh-induced contraction (circular strips of hTEB): did not cause a contraction; also recorded: inhibited

Source: patent US10828143B2, “Tissue-engineered bowel constructs” (Wake Forest University Health Sciences, priority 2015, dated 2020)
